Assay results from US20070004680A1, “Compositions and methods for modulating gated ion channels” (PainCeptor Pharma Corporation, priority 2004, published 2007).

Tests used:
[1] = target: T1, ASIC1a (Rattus norvegicus, UniProt P55926); test: whole cell patch clamp electrophysiology, ASIC1a; assay type: cell-based; settings: for Fraction of Control, ASIC1a - pH Dependency: 10 μM compound
T1 construct: expressed in transfected cells; host or cells: HEK cells according to b213
T1 sequence (P55926 1-526): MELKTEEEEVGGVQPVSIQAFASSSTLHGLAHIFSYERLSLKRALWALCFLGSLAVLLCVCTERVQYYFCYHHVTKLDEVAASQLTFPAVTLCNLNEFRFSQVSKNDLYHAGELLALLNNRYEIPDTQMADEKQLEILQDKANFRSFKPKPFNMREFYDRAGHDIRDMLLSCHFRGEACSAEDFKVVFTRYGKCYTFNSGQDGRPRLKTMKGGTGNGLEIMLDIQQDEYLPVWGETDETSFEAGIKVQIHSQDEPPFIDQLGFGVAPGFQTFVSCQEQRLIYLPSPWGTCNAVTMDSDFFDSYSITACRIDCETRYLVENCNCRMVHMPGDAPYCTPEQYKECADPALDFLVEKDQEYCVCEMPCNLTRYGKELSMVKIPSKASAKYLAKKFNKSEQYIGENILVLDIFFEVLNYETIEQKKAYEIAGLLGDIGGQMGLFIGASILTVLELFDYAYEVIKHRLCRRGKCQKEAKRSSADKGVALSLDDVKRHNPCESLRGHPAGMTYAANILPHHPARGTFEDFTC
Experimental: (§1) Another example of an in vitro assessment method consists of using mammalian heterologous expression systems, which are known to the skilled in the art, and include a variety of mammalian cell lines such as COS, HEK, e.g., HEK293and/or CHO, cells. Cell lines are transfected with gated ion channel(s) and used to perform electrophysiology as follows:
(§2) All experiments are performed at room temperature (20-25° C.) in voltage clamp using conventional whole cell patch clamp methods (Neher, E., et al. (1978) Pfluegers Arch 375:219-228).
(§3) The amplifier used is the EPC-9 (HEKA-electronics, Lambrect, Germany) run by a Macintosh G3 computer via an ITC-16 interface. Experimental conditions are set with the Pulse-software accompanying the amplifier. Data is low pass filtered and sampled directly to hard-disk at a rate of 3 times the cut-off frequency.
(§4) Pipettes are pulled from borosilicate glass using a horizontal electrode puller (Zeitz-lnstrumente, Augsburg, Germany). The pipette resistances are 2-3 MOhms in the salt solutions used in these experiments. The pipette electrode is a chloridized silver wire, and the reference is a silver chloride pellet electrode (In Vivo Metric, Healdsburg, USA) fixed to the experimental chamber. The electrodes are zeroed with the open pipette in the bath just prior to sealing.
(§5) Coverslips with the cells are transferred to a 15 μl experimental chamber mounted on the stage of an inverted microscope (IMT-2, Olympus) supplied with Nomarski optics. Cells are continuously superfused with extracellular saline at a rate of 2.5 ml/min. After giga-seal formation, the whole cell configuration is attained by suction. The cells are held at a holding voltage of −60 mV and at the start of each experiment the current is continuously measured for 45 s to ensure a stable baseline. Solutions of low pH (<7) are delivered to the chamber through a custom-made gravity-driven flowpipe, the tip of which is placed approximately 50 μm from the cell. Application is triggered when the tubing connected to the flowpipe is compressed by a valve controlled by the Pulse-software. Initially, low pH (in general, pH 6.5) is applied for 1 s every 45 s. The sample interval during application is 550 μs. After stable responses are obtained, the extracellular saline as well as the low-pH solution are switched to solutions containing the compound to be tested. The compound is present until responses of a repeatable amplitude are achieved. Current amplitudes are measured at the peak of the responses, and effect of the compounds is calculated as the amplitude at compound equilibrium divided by the amplitude of the current evoked by the pulse just before the compound was included.
The following salt solutions are used: extracellular solution (mM): NaCl (140), KCl (4), CaCl2 (2), MgCl2 (4), HEPES (10, pH 7.4); intracellular solution (mM): KCl (120), KOH (31), MgCl2 (1.785), […] (10), HEPES (10, pH 7.2). In general, compounds for testing are dissolved in 50% DMSO at 500 fold the highest concentration used.
The cDNA for ASIC1a and ASIC3 can be cloned from rat poly(A)^+ mRNA and put into expression vectors according to Hesselager et al. (J Biol Chem. 279(12):11006-15 2004). All constructs are expressed in CHO-K1 cells (ATCC no. CCL61). CHO-K1 cells are cultured at 37° C. in a humidified atmosphere of 5% CO2 and 95% air and passaged twice every week. The cells are maintained in DMEM (10 mM HEPES, 2 mM glutamax) supplemented with 10% fetal bovine serum and 2 mM L-proline (Life Technologies). […]

[2] = target: T2, ASIC3 (Rattus norvegicus, UniProt O35240); test: whole cell patch clamp electrophysiology, ASIC3; assay type: cell-based
T2 construct: expressed in transfected cells
T2 sequence (O35240 1-533): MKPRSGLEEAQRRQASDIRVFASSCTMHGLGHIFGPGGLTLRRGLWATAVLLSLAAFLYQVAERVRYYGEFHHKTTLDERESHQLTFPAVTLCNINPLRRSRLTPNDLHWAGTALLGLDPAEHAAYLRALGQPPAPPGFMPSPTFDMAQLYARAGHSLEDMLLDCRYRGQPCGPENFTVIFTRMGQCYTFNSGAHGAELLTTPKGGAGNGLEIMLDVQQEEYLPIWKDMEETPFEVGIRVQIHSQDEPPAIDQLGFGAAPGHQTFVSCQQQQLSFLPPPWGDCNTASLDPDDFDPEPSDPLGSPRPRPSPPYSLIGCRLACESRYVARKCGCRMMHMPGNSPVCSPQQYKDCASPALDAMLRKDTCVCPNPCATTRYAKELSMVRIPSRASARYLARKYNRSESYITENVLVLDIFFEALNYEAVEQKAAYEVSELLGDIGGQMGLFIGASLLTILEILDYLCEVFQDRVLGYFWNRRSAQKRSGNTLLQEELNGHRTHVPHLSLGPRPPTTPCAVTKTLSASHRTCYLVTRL
Experimental: as §1, §2, §3, §4
as §5, with “included. […]” for “included.”

SMILES: C=CC1CN2CCC1CC2[C@@H](OC(=O)CCC1CCCC1)c1ccnc2ccccc12 (some centres unmarked) [Compound A]
- Fraction of Control, ASIC1a - pH Dependency ([1]; pH 5.0): greater than .85
- Fraction of Control, ASIC1a - pH Dependency ([1]; pH 6.0): greater than .85
- IC50 ([1]; patch clamp, HEK cells, pH 6.5): 17 to 23 µM
- Fraction of Control, ASIC3 - pH Dependency ([2]; 10 μM compound, pH 5.0): greater than .75
- IC50 ([2]; patch clamp, pH 6.5): 4 to 6 µM
